Source: ChEMBL document CHEMBL1201862, “PubChem BioAssay data set” (2004)
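Cultured in 96-well plates, cells were exposed to test compound for 48 hours across five concentrations. GI50 = concentration required for 50% inhibition of growth.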 Active and inactive are the calls of the source. No stated cut-off is given here; in the data, active = GI50 up to about 1.1 µM and inactive = higher.

Experiments:
Assay in all cases: NCI-60 cell line screen, 48 h
CCRF-CEM = system: CCRF-CEM
EKVX = system: EKVX
HCT-116 = system: HCT-116
HCT-15 = system: HCT-15
HOP-92 = system: HOP-92
K562 = system: K562
Malme-3M = system: Malme-3M
NCI-H23 = system: NCI-H23
NCI/ADR-RES = system: NCI/ADR-RES
OVCAR-5 = system: OVCAR-5
PC-3 = system: PC-3
RXF 393 = system: RXF 393
SF-295 = system: SF-295
SF-539 = system: SF-539
SK-MEL-2 = system: SK-MEL-2
SNB-19 = system: SNB-19
SR = system: SR
UACC-257 = system: UACC-257
LOX IMVI = system: LOX IMVI
MDA-MB-435 = system: MDA-MB-435

Row | Compound | GI50 (CCRF-CEM) | GI50 (EKVX) | GI50 (HCT-116) | GI50 (HCT-15) | GI50 (HOP-92) | GI50 (K562) | GI50 (Malme-3M) | GI50 (NCI-H23) | GI50 (NCI/ADR-RES) | GI50 (OVCAR-5) | GI50 (PC-3) | GI50 (RXF 393) | GI50 (SF-295) | GI50 (SF-539) | GI50 (SK-MEL-2) | GI50 (SNB-19) | GI50 (SR) | GI50 (UACC-257) | GI50 (LOX IMVI) | GI50 (MDA-MB-435)
1 | CN(C)CCCNC(=O)c1c(-c2cccnc2)cnc2ccccc12 | > 100 µM (inactive) | > 100 µM (inactive) | > 100 µM (inactive) | > 100 µM | > 100 µM (inactive) | > 100 µM (inactive) | > 100 µM (inactive) | > 100 µM (inactive) | > 100 µM (inactive) | > 100 µM (inactive) | > 100 µM (inactive) | > 100 µM (inactive) | > 100 µM (inactive) | > 100 µM (inactive) | > 100 µM (inactive) | > 100 µM (inactive) | > 100 µM (inactive) | > 100 µM (inactive) |  | 
2 | CCCCCCCCCCCC[N+]12CC[N+](CCN)(CC1)CC2 | 73.6 µM (inactive) | > 100 µM (inactive) | > 100 µM (inactive) |  | 29.4 µM (inactive) | 32.1 µM (inactive) | > 100 µM (inactive) | 51.6 µM (inactive) |  | 17.2 µM (inactive) |  | 5.62 µM (inactive) | 51.8 µM (inactive) | 89.7 µM (inactive) | > 100 µM (inactive) | 20.8 µM (inactive) | 26.9 µM (inactive) | > 100 µM (inactive) | 37.8 µM (inactive) | 
3 | CN(C)CCNC(=O)c1ccc(C(=O)NCCN(C)C)c2nc3ccccc3cc12 | 0.676 µM (active) | 1.81 µM (inactive) | 0.301 µM (active) | 2.96 µM | 1.41 µM (inactive) | 0.61 µM (active) | 1.38 µM (inactive) | 1.71 µM (inactive) |  | 1.22 µM (inactive) |  | 0.762 µM (active) | 0.895 µM (active) | 0.378 µM (active) | 1.28 µM (inactive) | 1.2 µM (inactive) | 0.399 µM (active) | 1.62 µM (inactive) | 0.519 µM (active) | 
4 | CCCNCC(=O)O[C@]1(CC)C(=O)OCc2c1cc1n(c2=O)Cc2cc3ccccc3nc2-1 | < 0.01 µM (active) | 25.1 µM (inactive) | 0.164 µM (active) |  | 0.325 µM (active) | 0.181 µM (active) | 0.334 µM (active) | 0.0149 µM (active) |  | 0.129 µM (active) |  | 0.0397 µM (active) | < 0.01 µM (active) | 0.0118 µM (active) | 1.13 µM (inactive) | 0.0364 µM (active) | < 0.01 µM (active) | 0.163 µM (active) | 0.0134 µM (active) | 
5 | O=C(O)CSc1nnc(/C=C/c2ccccc2)[nH]1 | > 100 µM (inactive) | > 100 µM (inactive) | > 100 µM (inactive) | > 100 µM | > 100 µM (inactive) | > 100 µM (inactive) | > 100 µM (inactive) | > 100 µM (inactive) |  | > 100 µM (inactive) |  | > 100 µM (inactive) | > 100 µM (inactive) | > 100 µM (inactive) | > 100 µM (inactive) | > 100 µM (inactive) | > 100 µM (inactive) | > 100 µM (inactive) | > 61.2 µM (inactive) | 
6 | O=C1C2c3[nH]c4ccccc4c3C3CCCCCC3C2C(=O)N1c1ccccc1 (stereo not given) | 9.57 µM (inactive) | > 68.1 µM (inactive) | 11.2 µM (inactive) | > 47 µM | 30.1 µM (inactive) | > 55 µM (inactive) | 9.31 µM (inactive) | > 49.8 µM (inactive) |  | > 100 µM (inactive) |  | 12.4 µM (inactive) | 11 µM (inactive) | 14.4 µM (inactive) | 22.9 µM (inactive) | 25.8 µM (inactive) | > 33.3 µM (inactive) | 30.7 µM (inactive) | 14.9 µM (inactive) | 
7 | CC(C)(C)CNC(=O)NCn1cc(-c2ccccc2)nn1 | > 100 µM (inactive) | > 100 µM (inactive) | > 100 µM (inactive) | > 100 µM | > 100 µM (inactive) | > 100 µM (inactive) | > 100 µM (inactive) | > 100 µM (inactive) | > 100 µM (inactive) | > 100 µM (inactive) | > 100 µM (inactive) |  | > 100 µM (inactive) | > 100 µM (inactive) | > 100 µM (inactive) | > 100 µM (inactive) | > 100 µM (inactive) | > 100 µM (inactive) | > 100 µM (inactive) | 
8 | Cc1ccc(NCC(=O)N2CC(=O)Nc3ccccc32)cc1 | > 100 µM (inactive) | > 100 µM (inactive) | > 100 µM (inactive) | > 100 µM | > 100 µM (inactive) | > 100 µM (inactive) | > 100 µM (inactive) | > 100 µM (inactive) |  | > 100 µM (inactive) |  | > 100 µM (inactive) | > 100 µM (inactive) | > 100 µM (inactive) | > 100 µM (inactive) | > 100 µM (inactive) | > 100 µM (inactive) | > 100 µM (inactive) | > 100 µM (inactive) | 
9 | CCCCN(CCCC)C(=O)C(=O)C(C(=O)C(=O)OC)c1nc2ccccc2o1 (stereo not given) | 34.8 µM (inactive) |  | 67.9 µM (inactive) | 44.5 µM | > 100 µM (inactive) | 65.9 µM (inactive) | > 100 µM (inactive) | > 100 µM (inactive) |  | > 100 µM (inactive) |  | 17.5 µM (inactive) | > 100 µM (inactive) | > 100 µM (inactive) | > 100 µM (inactive) | > 100 µM (inactive) | 48.8 µM (inactive) | > 100 µM (inactive) | 44.8 µM (inactive) | 
10 | Fc1nc(F)nc(-c2c3ccccc3c3n2CCS3)n1 | 33.1 µM (inactive) | > 100 µM (inactive) | 65.5 µM (inactive) | 54.8 µM | 39.4 µM (inactive) | 47.5 µM (inactive) | > 100 µM (inactive) | > 100 µM (inactive) |  | > 100 µM (inactive) |  | 91.2 µM (inactive) | 53.3 µM (inactive) | > 100 µM (inactive) | 44.5 µM (inactive) | > 100 µM (inactive) | 37 µM (inactive) |  | 61.4 µM (inactive) | 
11 | CCOc1ccc(/C=C/c2cc(OC)c(OC)c(OC)c2)cc1 | 1.86 µM (inactive) | > 100 µM (inactive) | 0.561 µM (active) | 0.869 µM | 10.8 µM (inactive) | 0.458 µM (active) | 0.893 µM (active) | 2.92 µM (inactive) |  | > 100 µM (inactive) |  | 0.347 µM (active) | 0.346 µM (active) | 0.456 µM (active) | 1.23 µM (inactive) | 4.36 µM (inactive) | 2.46 µM (inactive) | 0.658 µM (active) | 1.59 µM (inactive) | 
12 | CN(C)CC(NC(NCS)C(=O)NCCNc1ccc(NCCNC(=O)C(NCS)NC(CN(C)C)OCCl)c2c1C(=O)c1c(O)ccc(O)c1C2=O)OCCl (stereo not given) |  | 0.228 µM (active) | 0.0249 µM (active) | 0.13 µM |  | 0.00678 µM (active) | 0.0605 µM (active) | 0.00877 µM (active) | 1.58 µM (inactive) | 0.525 µM (active) | 0.256 µM (active) |  | 0.00518 µM (active) |  | 1.45 µM (inactive) | 0.0301 µM (active) |  | 0.929 µM (active) | 0.0245 µM (active) | 0.151 µM (active)
13 | CC1C(OC2O[C@@H]3O[C@@]4(C)CC[C@H]5[C@H](C)CC[C@@H](C2C)[C@@]35O4)O[C@@H]2O[C@@]3(C)CC[C@H]4[C@H](C)CC[C@@H]1[C@@]24O3 (stereo not given in full) | > 50 µM (inactive) | > 50 µM (inactive) | > 50 µM (inactive) | > 50 µM |  | > 50 µM (inactive) | > 50 µM (inactive) | > 50 µM (inactive) |  | > 50 µM (inactive) | > 50 µM (inactive) |  | > 50 µM (inactive) | > 50 µM (inactive) | > 50 µM (inactive) | > 50 µM (inactive) | > 50 µM (inactive) | > 50 µM (inactive) | > 50 µM (inactive) | > 50 µM (inactive)
14 | C1=CC=C2NCCCCCCC/N=C3/C=CC=CC=C3NCCCCCCC/N=C\2C=C1 | 36.8 µM (inactive) | > 100 µM (inactive) | 39.1 µM (inactive) | > 100 µM | 33.9 µM (inactive) | 30.1 µM (inactive) | > 100 µM (inactive) | 11.9 µM (inactive) |  | > 100 µM (inactive) |  | 16.9 µM (inactive) | 47.5 µM (inactive) | 30.9 µM (inactive) | > 100 µM (inactive) | > 100 µM (inactive) | 63.5 µM (inactive) | > 100 µM (inactive) | 54.2 µM (inactive) | 
15 | COc1cccc(C=C2N=C(c3ccccc3)N(n3c(-c4ccccc4)nc4ccccc4c3=O)C2=O)c1 | 38.7 µM (inactive) | 43.6 µM (inactive) | 46 µM (inactive) | 54.3 µM |  | 68.9 µM (inactive) | > 100 µM (inactive) | 71.9 µM (inactive) |  |  | 41.2 µM (inactive) |  | 57.4 µM (inactive) | 43.2 µM (inactive) |  | 64.6 µM (inactive) | 33.5 µM (inactive) | 30.3 µM (inactive) | 62.5 µM (inactive) | > 100 µM (inactive)
16 | CN1CCC2(CC1)/C(=N/C1CCCCC1)NC(=O)N2c1ccccc1 | > 100 µM (inactive) | > 100 µM (inactive) | > 100 µM (inactive) | > 100 µM | 43.7 µM (inactive) |  | > 100 µM (inactive) | > 100 µM (inactive) | > 100 µM (inactive) | > 100 µM (inactive) |  | > 100 µM (inactive) | > 100 µM (inactive) |  |  | > 100 µM (inactive) | > 100 µM (inactive) | > 100 µM (inactive) |  | 
17 | CN1CCC(c2c(O)cc(O)c3c(=O)cc(-c4ccccc4Cl)oc23)C(O)C1 (stereo not given) | 0.0271 µM (active) | < 0.0395 µM (active) | < 0.01 µM (active) | 0.057 µM | 0.0194 µM (active) | 0.259 µM (active) | 0.203 µM (active) | 0.0557 µM (active) |  | 0.128 µM (active) |  | < 0.0149 µM (active) | < 0.0253 µM (active) | 0.0929 µM (active) | 0.0323 µM (active) | 0.0526 µM (active) | 0.0247 µM (active) | 0.0627 µM (active) | 0.0173 µM (active) | 
